Assay results: US20250346600A1, “TRICYCLIC DERIVATIVES AND RELATED USES” (MOMA Therapeutics, Inc., priority 2023, published 2025)
Where two headings read alike, the source gives them in different places.

Key:
[1] = target: T1, Full length WRN protein (aa 2-1432) (Homo sapiens (Human), UniProt Q14191); assay: WRN ATPase ADP-Glo biochemical assay, Assay Format A (10 μM ATP); conditions: 0.25 nM WRN, 100 nM C6.18 ssDNA, 30 min preincubation, read-out: ATPase ADPGlo AC50 (uM)- Assay Format A
In short: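 ADP-Glo luminescence measured hydrolysis of ATP by purified, baculovirus-expressed N-terminally tagged full-length WRN. Enzyme (0.5 nM) was preincubated 30 min with compound, then 200 nM ssDNA C6.18 plus 20 μM ATP were added (pre-mix levels) for 30 min at RT. IC50s come from four-parameter fits, geometric mean of at least two trials.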

[2] = test system: HT29 cells; assay: HT29 (MSS) 7 day viability, CellTiter Glo; format: cell-based; conditions: 7 days, read-out: HT29 (MSS) Viability 7 Day CTGAbs AC50
In short: (§1)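 For each line, compound dilution series (3-fold, 10 points) met a defined seeding density—HCT116 50, HT29 500 cells/well—followed by 7 days at 37 °C. Luminescent ATP signal, background-corrected with no-cell wells, gave four-parameter logistic IC50s.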

[3] = target: T1, Full length WRN protein (aa 2-1432); assay: WRN ATPase ADP-Glo biochemical assay, Assay Format B (100 μM ATP); conditions: 0.25 nM WRN, 100 nM C6.18 ssDNA, 60 min preincubation, read-out: ATPase ADPGlo AC50 (uM)- Assay Format B
[4] = test system: HCT116 cells; assay: HCT116 (MSI) 7 day viability, CellTiter Glo; format: cell-based; conditions: 7 days, read-out: HCT116 (MSI) Viability 7 Day Abs AC50
In short: as §1

T1 sequence (Q14191 2-1432): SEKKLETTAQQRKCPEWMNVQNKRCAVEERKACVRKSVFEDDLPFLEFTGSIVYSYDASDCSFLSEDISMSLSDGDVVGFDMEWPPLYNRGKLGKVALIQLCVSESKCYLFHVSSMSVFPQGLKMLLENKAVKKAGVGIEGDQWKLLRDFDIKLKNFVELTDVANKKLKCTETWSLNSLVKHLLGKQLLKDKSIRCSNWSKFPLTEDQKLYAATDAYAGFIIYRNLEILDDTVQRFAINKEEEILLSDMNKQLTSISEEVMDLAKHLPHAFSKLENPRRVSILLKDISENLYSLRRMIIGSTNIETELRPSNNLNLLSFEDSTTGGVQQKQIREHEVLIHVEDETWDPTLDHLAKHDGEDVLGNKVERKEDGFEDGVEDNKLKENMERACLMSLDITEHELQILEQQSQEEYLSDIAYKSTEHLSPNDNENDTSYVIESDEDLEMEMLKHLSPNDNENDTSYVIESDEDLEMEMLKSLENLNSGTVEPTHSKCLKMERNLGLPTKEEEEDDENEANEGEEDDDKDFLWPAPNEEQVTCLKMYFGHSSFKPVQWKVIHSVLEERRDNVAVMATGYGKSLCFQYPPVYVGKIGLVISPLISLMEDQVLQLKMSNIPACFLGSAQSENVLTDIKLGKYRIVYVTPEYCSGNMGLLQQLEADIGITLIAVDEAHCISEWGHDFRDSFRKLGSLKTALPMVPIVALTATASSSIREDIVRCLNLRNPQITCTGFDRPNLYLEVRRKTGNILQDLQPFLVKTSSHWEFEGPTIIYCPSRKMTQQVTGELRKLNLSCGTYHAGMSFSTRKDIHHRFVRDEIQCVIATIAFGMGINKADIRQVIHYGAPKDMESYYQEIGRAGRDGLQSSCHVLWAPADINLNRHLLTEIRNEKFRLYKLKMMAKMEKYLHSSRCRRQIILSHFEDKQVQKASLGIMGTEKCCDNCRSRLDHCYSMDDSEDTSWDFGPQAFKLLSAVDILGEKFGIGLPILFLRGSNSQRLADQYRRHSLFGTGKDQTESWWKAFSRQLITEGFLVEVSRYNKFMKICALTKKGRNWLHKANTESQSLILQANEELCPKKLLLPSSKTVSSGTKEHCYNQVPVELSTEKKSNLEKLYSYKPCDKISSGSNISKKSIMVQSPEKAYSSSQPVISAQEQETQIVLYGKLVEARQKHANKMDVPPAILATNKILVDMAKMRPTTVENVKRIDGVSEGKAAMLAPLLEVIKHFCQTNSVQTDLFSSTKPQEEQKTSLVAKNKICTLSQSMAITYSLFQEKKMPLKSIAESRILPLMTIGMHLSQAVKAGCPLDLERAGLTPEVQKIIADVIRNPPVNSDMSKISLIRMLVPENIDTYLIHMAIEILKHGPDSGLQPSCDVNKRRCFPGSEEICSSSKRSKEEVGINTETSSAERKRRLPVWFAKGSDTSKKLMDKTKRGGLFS

Structure (SMILES)	AC50 [1] [µM]	AC50 [3] [µM]	AC50 ([2]; Homo sapiens, HT-29, 168 h) [nM]	AC50 ([4]; Homo sapiens, HCT-116, 168 h) [nM]	AC50 [2] [nM]	AC50 [4] [nM]
C=CC(=O)N1CCc2nn(-c3cc(F)c(C4CC4)c(F)c3O)c3c2C(C1)N(C(=O)c1cnc(C(F)(F)F)cc1N)CC3 (stereo not drawn) [Compound 244, 1-(5-(4-amino-6-(trifluoromethyl)nicotinoyl)-2-(4-cyclopropyl-3,5-difluoro-2-hydroxyphenyl)-2,3,4,5,5a,6,8,9-octahydro-7H-1,2,5,7-tetraazabenzo[cd]azulen-7-yl)prop-2-en-1-one]	0.0015 to 0.005	0.015 to 0.055	> 3000	1 to 100		
C=CC(=O)N1CCc2nn(-c3ccc(C(C)C)cc3)c3c2C(C1)N(C(=O)c1ccc(Br)c2[nH]c(N4CCC4)nc12)CC3 (stereo not drawn) [Compound 9, 1-(5-(2-(azetidin-1-yl)-7-bromo-1H-benzo[d]imidazole-4-carbonyl)-2-(4-isopropylphenyl)-2,3,4,5,5a,6,8,9-octahydro-7H-1,2,5,7-tetraazabenzo[cd]azulen-7-yl)prop-2-en-1-one]	0.0015 to 0.005	0.015 to 0.055	> 3000	1 to 100		
C=CC(=O)N1CCc2nn(-c3ccc(C4CCC4)cc3O)c3c2C(C1)N(C(=O)c1ccc(C(F)F)nc1N)CC3 (stereo not drawn) [Compound 146, 1-(5-(2-amino-6-(difluoromethyl)nicotinoyl)-2-(4-cyclobutyl-2-hydroxyphenyl)-2,3,4,5,5a,6,8,9-octahydro-7H-1,2,5,7-tetraazabenzo[cd]azulen-7-yl)prop-2-en-1-one]	< 0.0015	0.005 to 0.015	> 3000	1 to 100		
C=CC(=O)N1CCc2nn(-c3ccc(C(C)C)cc3)c3c2C(C1)N(C(=O)c1ccc(Br)c2ncn(CC4CCO4)c12)CC3 (stereo not drawn) [Compound 82, 1-(5-(4-bromo-1-((oxetan-2-yl)methyl)-1H-benzo[d]imidazole-7-carbonyl)-2-(4-isopropylphenyl)-2,3,4,5,5a,6,8,9-octahydro-7H-1,2,5,7-tetraazabenzo[cd]azulen-7-yl)prop-2-en-1-one]	0.005 to 0.015	> 0.055	> 3000	500 to 1000		
C=CC(=O)N1CCc2nn(-c3ccc(C4CC4)cc3)c3c2C(C1)N(C(=O)c1c(N)cc(C(F)(F)F)nc1N)CC3 (stereo not drawn) [Compound 186, 1-(2-(4-cyclopropylphenyl)-5-(2,4-diamino-6-(trifluoromethyl)nicotinoyl)-2,3,4,5,5a,6,8,9-octahydro-7H-1,2,5,7-tetraazabenzo[cd]azulen-7-yl)prop-2-en-1-one]	< 0.0015	0.005 to 0.015	> 3000	1 to 100		
C=CC(=O)N1CCc2nn(-c3ccc(C4CC4)cc3)c3c2C(C1)N(C(=O)c1cnc(C(F)(F)F)cc1N)CC3 (stereo not drawn) [Compound 128, 1-(5-(4-amino-6-(trifluoromethyl)nicotinoyl)-2-(4-cyclopropylphenyl)-2,3,4,5,5a,6,8,9-octahydro-7H-1,2,5,7-tetraazabenzo[cd]azulen-7-yl)prop-2-en-1-one]	< 0.0015	0.005 to 0.015	> 3000	1 to 100		
C=CC(=O)N1CCc2nn(-c3ccc(C4CCC4)cc3O)c3c2C(C1)N(C(=O)c1cnc2c(C)nn(C)c2c1)CC3 (stereo not drawn) [Compound 145, 1-(2-(4-cyclobutyl-2-hydroxyphenyl)-5-(1,3-dimethyl-1H-pyrazolo[4,3-b]pyridine-6-carbonyl)-2,3,4,5,5a,6,8,9-octahydro-7H-1,2,5,7-tetraazabenzo[cd]azulen-7-yl)prop-2-en-1-one]	< 0.0015	0.005 to 0.015	> 3000	1 to 100		
C=CC(=O)N1CCc2nn(-c3ccc(C4CC4)cc3O)c3c2C(C1)N(C(=O)c1ccc(C(F)(F)F)cc1N)CC3 (stereo not drawn) [Compound 245, 1-(5-(2-amino-4-(trifluoromethyl)benzoyl)-2-(4-cyclopropyl-2-hydroxyphenyl)-2,3,4,5,5a,6,8,9-octahydro-7H-1,2,5,7-tetraazabenzo[cd]azulen-7-yl)prop-2-en-1-one]	< 0.0015	0.005 to 0.015	> 3000	1 to 100		
C=CC(=O)N1CCc2nn(-c3ccc(C4CC4)cc3O)c3c2C(C1)N(C(=O)c1cnc(C(F)(F)F)c(F)c1N)CC3 (stereo not drawn) [Compound 194, 1-(5-(4-amino-5-fluoro-6-(trifluoromethyl)nicotinoyl)-2-(4-cyclopropyl-2-hydroxyphenyl)-2,3,4,5,5a,6,8,9-octahydro-7H-1,2,5,7-tetraazabenzo[cd]azulen-7-yl)prop-2-en-1-one]	0.0015 to 0.005	0.005 to 0.015	> 3000	1 to 100		
C=CC(=O)N1CCc2nn(-c3ccc(C4CCC4)c(F)c3O)c3c2C(C1)N(C(=O)c1cnc(C(F)(F)F)cc1N)CC3 (stereo not drawn) [Compound 139, 1-(5-(4-amino-6-(trifluoromethyl)nicotinoyl)-2-(4-cyclobutyl-3-fluoro-2-hydroxyphenyl)-2,3,4,5,5a,6,8,9-octahydro-7H-1,2,5,7-tetraazabenzo[cd]azulen-7-yl)prop-2-en-1-one]	< 0.0015	0.005 to 0.015	> 3000	1 to 100		
C=CC(=O)N1CC(OC2CC2)c2nn(-c3ccc(C4CCC4)cc3)c3c2C(C1)N(C(=O)c1cnc(C(F)(F)F)cc1N)CC3 (stereo not drawn) [Compound 129, 1-(5-(4-amino-6-(trifluoromethyl)nicotinoyl)-2-(4-cyclobutylphenyl)-9-cyclopropoxy-2,3,4,5,5a,6,8,9-octahydro-7H-1,2,5,7-tetraazabenzo[cd]azulen-7-yl)prop-2-en-1-one]	< 0.0015	0.0015 to 0.005	1000 to 3000	1 to 100		
CS(=O)(=O)/C=C/CN1CCc2nn(-c3ccc(C4CC4)cc3O)c3c2C(C1)N(C(=O)c1cnc(C(F)(F)F)cc1N)CC3 (stereo not drawn) [Compound 257, (4-amino-6-(trifluoromethyl)pyridin-3-yl)(2-(4-cyclopropyl-2-hydroxyphenyl)-7-(3-(methylsulfonyl)allyl)-3,4,6,7,8,9-hexahydro-2H-1,2,5,7-tetraazabenzo[cd]azulen-5(5aH)-yl)methanone]	> 0.055	> 0.055	> 3000	> 1000		
C=CC(=O)N1CCc2nn(-c3ccc(C4CCC4)cc3O)c3c2C(C1)N(C(=O)c1ccc(Br)c2[nH]ncc12)CC3 (stereo not drawn) [Compound 87, 1-(5-(7-bromo-1H-indazole-4-carbonyl)-2-(4-cyclobutyl-2-hydroxyphenyl)-2,3,4,5,5a,6,8,9-octahydro-7H-1,2,5,7-tetraazabenzo[cd]azulen-7-yl)prop-2-en-1-one]	< 0.0015	0.0015 to 0.005	> 3000	1 to 100		

Further lines, with some results ahead:

AC50 [1] [µM]	AC50 [3] [µM]	Structure (SMILES)	AC50 ([2]; Homo sapiens, HT-29, 168 h) [nM]	AC50 ([4]; Homo sapiens, HCT-116, 168 h) [nM]	AC50 [2] [nM]	AC50 [4] [nM]
0.0015 to 0.005	0.015 to 0.055	C=CC(=O)N1CCc2nn(-c3ccc(C(C)C)cc3)c3c2C(C1)N(C(=O)c1cnc(C(F)(F)F)c(OCC(N)=O)c1)CC3 (stereo not drawn) [Compound 59, 2-((5-(7-acryloyl-2-(4-isopropylphenyl)-3,4,5,5a,6,7,8,9-octahydro-2H-1,2,5,7-tetraazabenzo[cd]azulene-5-carbonyl)-2-(trifluoromethyl)pyridin-3-yl)oxy)acetamide]	> 3000	100 to 250		
0.005 to 0.015	> 0.055	C=CC(=O)N1CCOc2nn(-c3ccc(C(C)C)cc3)c3c2C(C1)N(C(=O)c1cnc(C(F)(F)F)c(O)c1)CC3 (stereo not drawn) [Compound 47, 1-(5-(5-hydroxy-6-(trifluoromethyl)nicotinoyl)-2-(4-isopropylphenyl)-2,3,4,5,5a,6,8,9-octahydro-7H-10-oxa-1,2,5,7-tetraazacycloocta[cd]inden-7-yl)prop-2-en-1-one]	> 3000	> 1000		
< 0.0015	0.015 to 0.055	C=CC(=O)N1CCc2nn(-c3ccc(C4CCC4)cc3O)c3c2C(C1)N(C(=O)c1cnc(C(F)(F)F)c(SC)c1)CC3 (stereo not drawn) [Compound 89, 1-(2-(4-cyclobutyl-2-hydroxyphenyl)-5-(5-(methylthio)-6-(trifluoromethyl)nicotinoyl)-2,3,4,5,5a,6,8,9-octahydro-7H-1,2,5,7-tetraazabenzo[cd]azulen-7-yl)prop-2-en-1-one]	> 3000	1 to 100		
< 0.0015	0.015 to 0.055	C=CC(=O)N1CC(F)Oc2nn(-c3ccc(C(C)C)cc3)c3c2C(C1)N(C(=O)c1ccc(Br)c2[nH]cnc12)CC3 (stereo not drawn) [Compound 55, 1-(5-(7-bromo-1H-benzo[d]imidazole-4-carbonyl)-9-fluoro-2-(4-isopropylphenyl)-2,3,4,5,5a,6,8,9-octahydro-7H-10-oxa-1,2,5,7-tetraazacycloocta[cd]inden-7-yl)prop-2-en-1-one]			> 3000	100 to 250
< 0.0015	0.015 to 0.055	C=CC(=O)N1CCc2nn(-c3ccc(C(C)C)cc3)c3c2C(C1)N(C(=O)c1ccc(Br)c2c1CCO2)CC3 (stereo not drawn) [Compound 65, 1-(5-(7-bromo-2,3-dihydrobenzofuran-4-carbonyl)-2-(4-isopropylphenyl)-2,3,4,5,5a,6,8,9-octahydro-7H-1,2,5,7-tetraazabenzo[cd]azulen-7-yl)prop-2-en-1-one]	> 3000	1 to 100		
